Tests used:
Type in all cases: cell-based
IDO1 [1] = molecular target: T1, IDO1 (Homo sapiens, UniProt P14902); test: IDO1 HEK293 cellular assay; details: HEK293 cells transfected with Flag-IDO1 vector, 20-24 hours, fluorescence readout
Description: IDO1 HEK293 Cellular Assay
Compounds to be tested were serially diluted in ten 3-fold steps in DMSO starting from 10 mM DMSO stocks. Compound dilutions or DMSO alone were then dispensed from the dilution plate into a Greiner black 384-well assay plate (catalog #781086) using an Echo 550 acoustic liquid handler (Labcyte).
HEK293 cell pellets were resuspended to 5×10^5 cells/mL in complete HEK293 culture media (89% DMEM, 10% FBS, 1% penicillin/streptomycin). Suspended cells (2 mL) were dispensed into each well of a 6-well Corning plate (Catalog # 3516). Cells were allowed to attach and were incubated for 20 hours at 37° C. in a 5% CO2 incubator. Flag-IDO1 vector (Genscript True ORF Gold, 2 ug) in 150 uL of Opti-MEM medium was added to each well of a Corning 24 well plate (Cat # 3527) and incubated for 5 minutes at room temperature. To each well of the 24-well plate was added […] Lipofectamine 2000 (Gibco) and the plate incubated at room temperature for 20-30 minutes. To each well of attached cells in the 6-well plate, […] of the transfection mix from the 24-well plate was gently added to each well and IDO1 protein was allowed to express for 24-30 hours at 37 degrees Celsius in a 5% CO2 incubator.
Media was removed from the cells which were then washed with 2 mL Dulbecco's phosphate-buffered saline (DPBS). After removal of DPBS, 0.5 mL of TrypLE (Gibco) was added and incubated at 5 minutes until cells lift from the surface of the wells. Complete HEK293 culture media (4 mL) was added to each well and cells were collected and pooled into a conical tube. Cells were pelleted at 200×g for 5 minutes and resuspended in an equal volume of complete DMEM medium. Cells were diluted to 4×10^5 cells per mL in complete HEK293 media. L-Tryptophan was added to added to give a final concentration of […]. The diluted transfected cells […] or nontransfected cells […] were dispensed into wells of Greiner black 384-well assay plates (catalog #781086) containing previously diluted compounds. The plate is briefly mixed and centrifuged at 200×g for 10 seconds to collect cells at the bottom of the plate. Plates were covered and incubated for 20-24 hours at 37 degrees C. in a 5% CO2 incubator. Afterwards […] of 0.5 M methyl isonipecotate in dimethyl sulfoxide was added to each well, mixed, sealed, and centrifuged at 500 rpm for 10 seconds. Plates were incubated at 37 degrees in a 5% CO2 incubator overnight to develop fluoresence. The plates are allowed to cool and then centrifuged for 1 minute at 1000×g. The resulting fluoresence was measured in an Envision plate reader (Perkin Elmer) with a 400/25 nm excitation filter and an 510/20 nm emission filter.
(§1) The fluoresence intensity of each well was corrected for the background observed in wells with untransfected cells and was expressed as a fraction of the intensity observed in wells of IDO1 transfected cells and DMSO only. Potencies were calculated by linear least squares fit to the four parameter logistic IC50 equation.

TDO = molecular target: T2, TDO (Homo sapiens, UniProt P48775); test: TDO cellular assay in frozen SW48 cells; details: 300 uM L-tryptophan, about 48 hours, fluorescence readout
T2 construct: endogenous in cells; host or cells: SW48 cells (A2780 cells as low-TDO control)
Description: TDO Cellular Assay in Frozen SW48 Cells
SW48 cells were cultured in complete RPMI culture medium (90% RPMI, 10% heat-inactivated fetal bovine serum).
Compounds to be tested were serially diluted in ten 3-fold steps in DMSO starting from 10 mM DMSO stocks in Echo low volume plate(s). […] The cells were spun down at 350 g in a table top centrifuge for 5 minutes and suspended in same volume of RPMI assay medium. […] Sterile L-tryptophan (Sigma, Cat #T0254) was added to the cells with final concentration of 300 uM.
SW48 and A2780 cells were dispensed to the respective wells of 384-well assay plates containing the compounds. The plates were incubated for about 48 hours at a 37° C., 5% CO2 incubator. Afterwards, 12 μL of 0.5 M ethyl isonipecotate (Sigma Aldrich, Cat #E33505) in dimethyl sulfoxide were added into each well and the plates were sealed and incubated at 37° C. without CO2 overnight. The plates were centrifuged for 1 minute at 200×g. The resulting fluorescence was measured in a Spectramax plate reader (Molecular Devices) with a 400 nm excitation filter and a 510 nm emission filter.
as §1, with “fluorescence” for “fluoresence”, “A2780” for “untransfected”, “SW48” for “IDO1 transfected”

IDO1 [2] = molecular target: T1, IDO1; test: IDO1 cellular assay in Hela cells stimulated with IFNγ; details: IFNγ 100 ng/mL, 300 uM L-tryptophan, about 48 hours, fluorescence readout
Description: IDO1 Cellular Assay in Hela Cells Stimulated with IFNγ
Hela cells were cultured in complete Hela culture medium (90% EMEM, 10% heat-inactivated fetal bovine serum) and expanded to about 1×10^9 cells. The cells were then collected and frozen down at 1×10^7 cells/vial in 1 mL frozen medium (90% complete Hela culture medium, 10% DMSO)
Compounds to be tested were serially diluted in ten 3-fold steps in DMSO starting from 10 mM DMSO stocks in Echo low volume plate(s).
Frozen Hela cells were thawed and transferred into Hela assay medium (99% complete Hela culture medium, 1% Pen/Strep) with 20 mL medium/vial of cells. The cells were spun down at 250 g in a table top centrifuge for 5 min and suspended in same volume of Hela assay medium. […] Sterile L-tryptophan were added to the cells with final concentration of 300 uM L-tryptophan. A small aliquot (2 mL/plate) of Hela cells were set aside and were not treated with IFNγ, to serve as the Max-E control.
Hela cells with and without IFNγ were dispensed to the respective wells of 384-well assay plates containing the compounds. The plates were incubated for about 48 hours at a 37° C., 5% CO2 incubator. Afterwards, […] of 0.5 M methyl isonipecotate in dimethyl sulfoxide were added into each well and the plates were sealed and incubated at 37° C. without CO2 overnight. The plates were centrifuged for 1 min at 200×g. The resulting fluorescence was measured in a Spectramax plate reader (Molecular Devices) with a 400 nm excitation filter and a 510 nm emission filter.
Potencies were calculated by linear least squares fit to the four parameter logistic IC50 equation.

T1 sequence (P14902 whole entry): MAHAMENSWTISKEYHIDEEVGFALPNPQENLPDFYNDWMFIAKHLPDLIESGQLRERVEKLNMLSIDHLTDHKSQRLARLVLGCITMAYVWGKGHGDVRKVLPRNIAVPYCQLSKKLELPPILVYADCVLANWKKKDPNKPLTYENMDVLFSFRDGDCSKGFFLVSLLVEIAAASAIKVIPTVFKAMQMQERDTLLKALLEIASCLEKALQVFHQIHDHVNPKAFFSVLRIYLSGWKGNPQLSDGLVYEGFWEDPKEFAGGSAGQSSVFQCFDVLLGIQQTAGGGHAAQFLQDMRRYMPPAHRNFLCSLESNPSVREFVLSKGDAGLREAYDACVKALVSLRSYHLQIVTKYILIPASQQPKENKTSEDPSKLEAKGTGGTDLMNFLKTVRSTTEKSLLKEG
T2 sequence (P48775 whole entry): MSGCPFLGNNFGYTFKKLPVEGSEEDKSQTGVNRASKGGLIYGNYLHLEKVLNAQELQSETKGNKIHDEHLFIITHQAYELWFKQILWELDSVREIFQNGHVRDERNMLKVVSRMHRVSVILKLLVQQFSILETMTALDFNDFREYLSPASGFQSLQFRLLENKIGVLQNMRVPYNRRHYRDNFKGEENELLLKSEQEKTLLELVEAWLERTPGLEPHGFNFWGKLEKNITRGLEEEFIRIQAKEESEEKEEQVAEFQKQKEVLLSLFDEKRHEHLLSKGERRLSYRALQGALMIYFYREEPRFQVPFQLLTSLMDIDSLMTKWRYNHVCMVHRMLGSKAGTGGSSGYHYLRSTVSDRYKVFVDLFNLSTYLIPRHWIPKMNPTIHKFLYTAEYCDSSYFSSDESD

| IC50 (IDO1 [1]) [nM] | IC50 (TDO) [nM] | IC50 (IDO1 [2]) [nM] | Structure (SMILES) |
| --- | --- | --- | --- |
| 76 | ≥ 10000 | 72 | O=C(CCC(F)(F)F)Nc1ccc(C2(C(=O)Nc3ccc(F)cc3)CCC2)cn1 [Example 5, N-(4-fluorophenyl)-1-(6-(4,4,4-trifluorobutanamido)pyridin-3-yl)cyclobutane-1-carboxamide] |
| 26 | ≥ 10000 | 28 | O=C(Nc1ccc(C2(C(=O)Nc3ccc(F)cc3)CCC2)cn1)C1CCCC(F)(F)C1 (stereo not drawn) [Example 17, 3,3-difluoro-N-(5-{1-[(4-fluorophenyl)carbamoyl]cyclobutyl}pyridin-2-yl)cyclohexane-1-carboxamide] |
| 32 | ≥ 10000 | 29 | O=C(CCC1CC1)Nc1ccc(C2(C(=O)Nc3ccc(F)cc3)CCC2)cn1 [Example 18, 1-{6-[(3-cyclopropylpropanoyl)amino]pyridin-3-yl}-N-(4-fluorophenyl)cyclobutane-1-carboxamide] |
| 156 | ≥ 10000 | 138 | O=C(Nc1ccc(C2(C(=O)Nc3ccc(F)cc3)CCC2)cn1)C1CCOCC1 [Example 20, N-(5-{1-[(4-fluorophenyl)carbamoyl]cyclobutyl}pyridin-2-yl)oxane-4-carboxamide] |
| 123 | ≥ 10000 | 154 | O=C(Nc1ccc(C2(C(=O)Nc3ccc(F)cc3)CCC2)cn1)C1CCCOC1 (stereo not drawn) [Example 22, N-(5-{1-[(4-fluorophenyl)carbamoyl]cyclobutyl}pyridin-2-yl)oxane-3-carboxamide] |
| 28 | ≥ 10000 | 25 | CC(C)CC(=O)Nc1ccc(C2(C(=O)Nc3ccc(F)cc3)CCC2)cn1 [Example 27, N-(4-fluorophenyl)-1-{6-[(3-methylbutanoyl)amino]pyridin-3-yl}cyclobutane-1-carboxamide] |
| 70 | ≥ 10000 | 83 | O=C(CC1CC1)Nc1ccc(C2(C(=O)Nc3ccc(F)cc3)CCC2)cn1 [Example 30, 1-{6-[(cyclopropylacetyl)amino]pyridin-3-yl}-N-(4-fluorophenyl)cyclobutane-1-carboxamide] |

Source: US11111232B2, “Substituted cyclobutylpyridine and cyclobutylpyrimidine compounds as indoleamine 2,3-dioxygenase (IDO) inhibitors” (MERCK SHARP & DOHME CORP., priority 2017, dated 2021)
